Assay results reported in US9629855B2, “Pharmaceutical composition for treatment of eye pain, containing PGE2 synthesis inhibitor” (INDUSTRY-ACADEMIC COOPERATION FOUNDATION, YONSEI UNIVERSITY, priority 2011, dated 2017).

Experiments:
[1] = test system: patients having an ocular pain symptom; assay: Number of eye blinks after intraocular administration of PGE2 synthesis inhibitors to eye pain patients; format: in vivo, human; conditions: blinks for 5 min
Protocol: PGE2 synthesis inhibitors were administered intraocularly to patients having an ocular pain symptom, and whether the number of eye blinks of the patient group was reduced compared to that of a control group was examined. The PGE2 synthesis inhibitors used were 15-deoxy-Δ^12,14-PGJ2, exisulind, NS-398, leukotriene C4, mk-886, analogues of MK-886, MF63, thienopyrrole, naphthalene disulphonamide, resveratrol, and γ-hydroxybutenolide.
As a result, it was shown that, when the PGE synthesis inhibitors were administered intraocularly, they reduced ocular discomfort to thereby reduce the number of eye blinks (Table 2).

[2] = test system: patients having an ocular pain symptom; assay: Number of eye blinks after intraocular administration of selective COX2 inhibitors to ocular pain patients; format: in vivo, human; conditions: control group = Diclofenac

Row | SMILES | Number of eye blinks of treated group (n = 10) for 5 min [1] | Number of eye blinks of treated group (n = 3) [2]
1 | CC(C)c1ccc2c(c1)c(SC(C)(C)C)c(CC(C)(C)C(=O)O)n2Cc1ccc(Cl)cc1 [mk-886] | 15 | 
2 | CS(=O)(=O)Nc1ccc([N+](=O)[O-])cc1OC1CCCCC1 [NS-398] | 13 | 
3 | CC1=C(CC(=O)O)c2cc(F)ccc2/C1=C\c1ccc(S(C)(=O)=O)cc1 [Exisulind] | 14 | 
4 | CCCCC/C=C\C\C=C/C=C/C=C/[C@@H](SC[C@H](NC(=O)CC[C@H](N)C(=O)O)C(=O)NCC(=O)O)[C@@H](O)CCCC(=O)O [Leukotriene C4] | 17 | 
5 | CS(=O)(=O)Nc1ccc([N+](=O)[O-])cc1Oc1ccccc1 [Nimesulud] |  | 16
6 | c1cc2sccc2[nH]1 [Thienopyrrole] | 13 | 
7 | Oc1ccc(C=Cc2cc(O)cc(O)c2)cc1 [Resveratrol] | 17 | 
8 | Cc1cnc(NC(=O)C2=C(O)c3ccccc3S(=O)(=O)N2C)s1 [Meloxicam] |  | 20
9 | CCN1CC/C(=C\c2cc(C(C)(C)C)c(O)c(C(C)(C)C)c2)S1(=O)=O [S-2474, 3,5-di-tert-buryl-4-hydroxybenzylidene] |  | 15
10 | CCCCC/C=C/C=C1/C(=O)C=C[C@@H]1C/C=C\CCCC(=O)O [15-deoxy-Δ^12,14-PGJ2] | 11 | 
